The values that follow come from patent US20240092799A1, “MNK INHIBITORS” (Hepagene Therapeutics (HK) Limited, priority 2020, published 2024).

In assay [1] the target is MNK2 (Homo sapiens (Human), UniProt Q9HBH9). Kind of assay: MNK Biochemical Enzymatic Assay (ADP-Glo), MNK2 binding assay. An outline of the steps: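 Human MNK1 or MNK2 was preincubated with a 10-point, 1:3 serial dilution of compound for 15 min at 25 °C. Substrate was then added and the reaction ran 60 min at 25 °C. ADP formed was read by ADP-Glo luminescence, and IC50 came from non-linear regression.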
A general note: ADP-Glo turns the ADP formed in a reaction into a luminescent signal.

The test system of assay [2] is TMD-8 cell p-IF4E. Description: p-eIF4E Signaling Cellular Assay (CisBio HTRF) in TMD-8 cells. The following applies: Homo sapiens, TMD8, 40 min, 40 min treatment. It counts as cell-based. As to the method: p-eIF4E Signaling Cellular Assay. Phosphorylated eIF4E is assayed using the CisBio p-Eif4E HTRF assay kit. Reagents and equipment used in the assay are listed below, followed by the protocol.
Cell medium: RPMI 1640+10% FBS+1*PS, TMD-8 were cultured as recommended and assayed in exponential growth phase. • a) Plate 30 μL of cells in 384 white assay plate in appropriate medium and proper cell density (20 k/well) based on Optimization at 37° C. under 5% CO2 atmosphere • b) Dispense 90 nL of compounds diluted in DMSO and treat for 40 min at 37° C. under 5% CO2 atmosphere • c) Remove cell supernatant by flicking the plate • d) Add 16 μL of supplemented lysis buffer (1×) for 30 minutes at RT under shaking • e) Add 4 μL of premixed antibody solutions prepared in the detection buffer. Cover the plate with a plate sealer. Incubate 0/N at RT • f) Read the fluorescence emission at 665 nm and 620 nm on Envision • g) Data analysis • (1) Ratio […] signal is calculated for each well • (2) % Inhibition is calculated as follow:
% inhibition=100−(Signalcmpd-SignalAve_PC)/(SignalAve_VC-SignalAve_PC)×100. • (3) Calculate IC50 and Plot effect-dose curve of cmpds:
Calculate IC50 by fitting % Inhibition values and log of compound concentrations to nonlinear regression (dose response−variable slope) with Graphpad 8.0.
Y=Bottom+(Top−Bottom)/(1+10^((Log IC50−X)*Hill Slope)) • X: log of Inhibitor concentration; Y: % Inhibition.
On the technique in general: Time-resolved FRET reads energy transfer from a long-lived donor to a nearby acceptor.

MNK2, sequence (Q9HBH9 whole entry): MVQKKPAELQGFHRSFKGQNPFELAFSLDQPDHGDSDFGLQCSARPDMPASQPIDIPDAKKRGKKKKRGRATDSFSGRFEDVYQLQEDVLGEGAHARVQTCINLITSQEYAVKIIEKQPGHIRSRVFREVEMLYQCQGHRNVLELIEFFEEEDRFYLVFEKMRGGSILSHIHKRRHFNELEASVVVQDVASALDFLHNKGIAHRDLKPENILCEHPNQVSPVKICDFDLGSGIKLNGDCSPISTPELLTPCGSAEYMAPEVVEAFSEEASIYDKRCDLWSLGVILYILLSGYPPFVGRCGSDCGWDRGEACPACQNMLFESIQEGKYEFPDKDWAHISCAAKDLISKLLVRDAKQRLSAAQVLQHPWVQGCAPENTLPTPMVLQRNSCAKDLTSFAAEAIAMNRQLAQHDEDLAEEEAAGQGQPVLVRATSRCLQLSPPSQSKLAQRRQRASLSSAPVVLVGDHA

Broadly, the IC50 is the concentration that inhibits the measured activity by half. Turning to `Cn1ccc(Nc2cc(Nc3nc4c(s3)C(=O)NC43CCCCC3)ncn2)n1` [Compound XXVIII-M, 2′-((6-((1-methyl-1H-pyrazol-3-yl)amino)pyrimidin-4-yl)amino)spiro[cyclohexane-1,4′-pyrrolo[3,4-d]thiazol]-6′(5′H)-one], the IC50 in assay [1] and in assay [2] was 0.1 to 10 nM throughout.

Consider `Cc1cc(Nc2cc(Nc3ccc(N4CCOCC4)cn3)ncn2)[n+]([O-])c2c1C(=O)NC21CCCCC1` [Compound XXIX-AAJ, 4′-methyl-2′-((6-((5-morpholinopyridin-2-yl)amino)pyrimidin-4-yl)amino)-5′-oxo-5′,6′-dihydrospiro[cyclohexane-1,7′-pyrrolo[3,4-b]pyridine] 1′-oxide], for which the 50% inhibitory concentration (IC50) in assay [1] and in assay [2] was 0.1 to 10 nM each time.

Take `C[C@@H]1COCCN1C(=O)C1CCc2c(sc3ncnc(Nc4cc5c(s4)C(=O)NC54CCCCC4)c23)C1` (stereo partly drawn) [Compound XXV-C, 2′-((7-((R)-3-Methylmorpholine-4-carbonyl)-5,6,7,8-tetrahydrobenzo[4,5]thieno[2,3-d]pyrimidin-4-yl)amino)spiro[cyclohexane-1,4′-thieno[2,3-c]pyrrol]-6′(5′H)-one]: the IC50 in assay [1] fell in the range of 10 to 100 nM; in assay [2], 100 to 1000 nM.

With `COc1c(N)ncnc1Nc1nc2c(s1)C(=O)NC21CCCCC1` [Compound XXVIII-G, 2′-((6-amino-5-methoxypyrimidin-4-yl)amino)spiro[cyclohexane-1,4′-pyrrolo[3,4-d]thiazol]-6′(5′H)-one], the IC50 in assay [1] lay in the range of 0.1 to 10 nM; in assay [2], 10 to 100 nM.

`Cc1cc(Nc2cc(N[C@@H]3COC[C@H]3O)ncn2)[n+]([O-])c2c1C(=O)NC21CCCCC1` (relative stereo) [Compound XXIX-AE, 2′-((6-((trans-4-hydroxytetrahydrofuran-3-yl)amino)pyrimidin-4-yl)amino)-4′-methyl-5′-oxo-5′,6′-dihydrospiro[cyclohexane-1,7′-pyrrolo[3,4-b]pyridine] 1′-oxide]: the figures for the concentration for half-maximal inhibition (IC50) in assay [1] and in assay [2] were 0.1 to 10 nM and 10 to 100 nM, respectively.

With `Cc1cc(Nc2cc(N[C@H]3C[C@@H](O)C3)ncn2)[n+]([O-])c2c1C(=O)NC21CCCCC1` [Compound XXIX-AP, 2′-((6-(((cis)-3-hydroxycyclobutyl)amino)pyrimidin-4-yl)amino)-4′-methyl-5′-oxo-5′,6′-dihydrospiro[cyclohexane-1,7′-pyrrolo[3,4-b]pyridine] 1′-oxide], the IC50 in assay [1] fell in the range of 0.1 to 10 nM; in assay [2], 10 to 100 nM.

In the case of `Cc1cc(Nc2cc(Nc3ccc(N4C[C@@H](C)N[C@@H](C)C4)cn3)ncn2)[n+]([O-])c2c1C(=O)NC21CCCCC1` [Compound XXIX-AAN, 2′-((6-((5-(cis-3,5-dimethylpiperazin-1-yl)pyridin-2-yl)amino)pyrimidin-4-yl)amino)-4′-methyl-5′-oxo-5′,6′-dihydrospiro[cyclohexane-1,7′-pyrrolo[3,4-b]pyridine]1′-oxide], the IC50 in assay [1] and in assay [2] was 0.1 to 10 nM each time.

With `Cc1cc(Nc2cc(Nc3ccn(CCO)n3)ncn2)[n+]([O-])c2c1C(=O)NC21CCCCC1` [Compound XXIX-AT, 2′-((6-((1-(2-hydroxyethyl)-1H-pyrazol-3-yl)amino)pyrimidin-4-yl)amino)-4′-methyl-5′-oxo-5′,6′-dihydrospiro[cyclohexane-1,7′-pyrrolo[3,4-b]pyridine] 1′-oxide], the IC50 in assay [1] and in assay [2] was 0.1 to 10 nM each time.

As for `O=C1NC2(CCCCC2)c2nc(Nc3cc(Nc4ccc(N5CCOCC5)cn4)ncn3)sc21` [Compound XXVIII-Q, 2′-((6-((5-morpholinopyridin-2-yl)amino)pyrimidin-4-yl)amino)spiro[cyclohexane-1,4′-pyrrolo[3,4-d]thiazol]-6′(5′H)-one], the IC50 in assay [1] and in assay [2] was 0.1 to 10 nM in each case.

With `Cn1cnc(Nc2cc(Nc3cc4c(s3)C(=O)NC43CCCCC3)ncn2)c1` [Compound XXXI-B, 2′-((6-((1-methyl-1H-imidazol-4-yl)amino)pyrimidin-4-yl)amino)spiro[cyclohexane-1,4′-thieno[2,3-c]pyrrol]-6′(5′H)-one], the concentration for half-maximal inhibition (IC50) was in the range of 10 to 100 nM in assay [1] and 100 to 1000 nM in assay [2].

As for `CC(=O)N(C)c1ccnc(Nc2cc(Nc3nc4c(s3)C(=O)NC43CCCCC3)ncn2)c1` [Compound XXVIII-P, N-methyl-N-(2-((6-((6′-oxo-5′,6′-dihydrospiro[cyclohexane-1,4′-pyrrolo[3,4-d]thiazol]-2′-yl)amino)pyrimidin-4-yl)amino)pyridin-4-yl)acetamide], the values for the IC50 in assay [1] and in assay [2] were 0.1 to 10 nM and 10 to 100 nM, respectively.

For the molecule `COc1c(N)ncnc1Nc1cc(C)c2c([n+]1[O-])C1(CCCCC1)NC2=O` [Compound XXIX-Z, 2′-((6-amino-5-methoxypyrimidin-4-yl)amino)-4′-methyl-5′-oxo-5′,6′-dihydrospiro[cyclohexane-1,7′-pyrrolo[3,4-b]pyridine] 1′-oxide], the IC50 in assay [1] and in assay [2] was 0.1 to 10 nM each time.

For `COc1c(N)ncnc1Nc1cc2c(s1)C(=O)NC21CCCCC1` [Compound X-C, 2′-((6-amino-5-methoxypyrimidin-4-yl)amino)spiro[cyclohexane-1,4′-thieno[2,3-c]pyrrol]-6′(5′H)-one], the IC50 in assay [1] lay within 0.1 to 10 nM; in assay [2] it was 10 to 100 nM.

With `O=C1NC2(CCCCC2)c2nc(Nc3ccnc(N[C@H]4CCOC4)c3)sc21` [Compound XXVIII-H, (S)-2′-((2-((tetrahydrofuran-3-yl)amino)pyridin-4-yl)amino)spiro[cyclohexane-1,4′-pyrrolo[3,4-d]thiazol]-6′(5′H)-one], the IC50 in assay [1] was in the range of 0.1 to 10 nM; in assay [2], 10 to 100 nM.

`O=C1NC2(CCCCC2)c2nc(Nc3ncnc4[nH]ccc34)sc21` [Compound XXVIII-A, 2′-((7H-pyrrolo[2,3-d]pyrimidin-4-yl)amino)spiro[cyclohexane-1,4′-pyrrolo[3,4-d]thiazol]-6′(5′H)-one]: the IC50 in assay [1] and in assay [2] was 0.1 to 10 nM throughout.

Turning to `CO[C@H]1C[C@@H](Nc2cc(Nc3cc(C)c4c([n+]3[O-])C3(CCCCC3)NC4=O)ncn2)C1` [Compound XXIX-AAE, 2′-((6-((cis-3-methoxycyclobutyl)amino)pyrimidin-4-yl)amino)-4′-methyl-5′-oxo-5′,6′-dihydrospiro[cyclohexane-1,7′-pyrrolo[3,4-b]pyridine] 1′-oxide], the half-maximal inhibitory concentration (IC50) in assay [1] and in assay [2] was 0.1 to 10 nM in each case.

In the case of `O=C1NC2(CCCCC2)c2nc(Nc3cc(N[C@H]4CCOC4)ncn3)sc21` [Compound XXVIII, (S)-2′-((6-((tetrahydrofuran-3-yl)amino)pyrimidin-4-yl)amino)spiro[cyclohexane-1,4′-pyrrolo[3,4-d]thiazol]-6′(5′H)-one], the IC50 fell in the range of 0.1 to 10 nM in assay [1] and 10 to 100 nM in assay [2].

In the case of `O=C1NC2(CCCCC2)c2cc(Nc3cc(NC4CCCC4)ncn3)sc21` [Compound XXIII-N, 2′-((6-(Cyclopentylamino)pyrimidin-4-yl)amino)spiro[cyclohexane-1,4′-thieno[2,3-c]pyrrol]-6′(5′H)-one], the IC50 in assay [1] and in assay [2] was 10 to 100 nM in each case.

As for `Cc1cc(Nc2cc(Nc3cc[nH]n3)ncn2)[n+]([O-])c2c1C(=O)NC21CCCCC1` [Compound XXIX-AS, 2′-((6-((1H-pyrazol-3-yl)amino)pyrimidin-4-yl)amino)-4′-methyl-5′-oxo-5′,6′-dihydrospiro[cyclohexane-1,7′-pyrrolo[3,4-b]pyridine] 1′-oxide], the IC50 in assay [1] and in assay [2] was 0.1 to 10 nM each time.

Take `Cc1cc(Nc2cc(Nc3ncc(F)cc3F)ncn2)[n+]([O-])c2c1C(=O)NC21CCCCC1` [Compound XXIX-AM, 2′-((6-((3,5-difluoropyridin-2-yl)amino)pyrimidin-4-yl)amino)-4′-methyl-5′-oxo-5′,6′-dihydrospiro[cyclohexane-1,7′-pyrrolo[3,4-b]pyridine] 1′-oxide]: the IC50 was in the range of 0.1 to 10 nM in assay [1] and 10 to 100 nM in assay [2].

Regarding `Cc1cc(Nc2cc(NC(=O)C3CCCO3)ncn2)[n+]([O-])c2c1C(=O)NC21CCCCC1` (stereo not shown) [Compound XXIX-AW, 4′-methyl-5′-oxo-2′-((6-(tetrahydrofuran-2-carboxamido)pyrimidin-4-yl)amino)-5′,6′-dihydrospiro[cyclohexane-1,7′-pyrrolo[3,4-b]pyridine] 1′-oxide], the IC50 was 0.1 to 10 nM in assay [1] and 10 to 100 nM in assay [2].

Consider `Cn1cnc(Nc2cc(Nc3nc4c(s3)C(=O)NC43CCCCC3)ncn2)n1` [Compound XXVIII-K, 2′-((6-((1-methyl-1H-1,2,4-triazol-3-yl)amino)pyrimidin-4-yl)amino)spiro[cyclohexane-1,4′-pyrrolo[3,4-d]thiazol]-6′(5′H)-one], for which the half-maximal inhibitory concentration (IC50) in assay [1] lay in the range of 0.1 to 10 nM; in assay [2] it was 10 to 100 nM.

`Cc1cc2c(Nc3cc4c(s3)C(=O)NC43CCCCC3)ncnc2[nH]1` [Compound XVII-C, 2′-((6-methyl-7H-pyrrolo[2,3-d]pyrimidin-4-yl)amino)spiro[cyclohexane-1,4′-thieno[2,3-c]pyrrol]-6′(5′H)-one]: the IC50 in assay [1] lay within 0.1 to 10 nM; in assay [2], 10 to 100 nM.
